Measured values as given in ChEMBL document CHEMBL3745637, “New hybrid molecules with anticonvulsant and antinociceptive activity derived from 3-methyl- or 3,3-dimethyl-1-[1-oxo-1-(4-phenylpiperazin-1-yl)propan-2-yl]pyrrolidine-2,5-diones” (Bioorg Med Chem, 2016).
Calls of active or inactive are those of the source. The rule behind the calls is not given here.

Key:
[1] = system: Mus musculus; assay: Anticonvulsant activity in Swiss mouse assessed as protection against maximal electroshock-induced seizures at 100 mg/kg, ip pretreated for 1 hr; assay type: functional, organism-based
[2] = system: Mus musculus; assay: Anticonvulsant activity in Swiss mouse assessed as protection against maximal electroshock-induced seizures at 100 mg/kg, ip pretreated for 2 hrs; assay type: functional, organism-based
[3] = system: Mus musculus; assay: Anticonvulsant activity in Swiss mouse assessed as protection against maximal electroshock-induced seizures at 100 mg/kg, ip pretreated for 0.25 hrs; assay type: functional, organism-based
[4] = system: Mus musculus; assay: Anticonvulsant activity in Swiss mouse assessed as protection against maximal electroshock-induced seizures at 100 mg/kg, ip pretreated for 0.5 hrs; assay type: functional, organism-based
[5] = system: Mus musculus; assay: Anticonvulsant activity in Swiss mouse assessed as protection against maximal electroshock-induced seizures at 300 mg/kg, ip pretreated for 0.25 hrs; assay type: functional, organism-based
[6] = system: Mus musculus; assay: Anticonvulsant activity in Swiss mouse assessed as protection against maximal electroshock-induced seizures at 300 mg/kg, ip pretreated for 2 hrs; assay type: functional, organism-based
[7] = system: Mus musculus; assay: Anticonvulsant activity in Swiss mouse assessed as protection against maximal electroshock-induced seizures at 300 mg/kg, ip pretreated for 0.5 hrs; assay type: functional, organism-based
[8] = system: Mus musculus; assay: Anticonvulsant activity in Swiss mouse assessed as protection against maximal electroshock-induced seizures at 300 mg/kg, ip pretreated for 1 hr; assay type: functional, organism-based
[9] = system: Mus musculus; assay: Anticonvulsant activity in ip dosed Swiss mouse assessed as protection against maximal electroshock-induced seizures at 0.25 hrs; assay type: functional

Structure (SMILES)	Activity [1]	Activity [2]	Activity [3]	Activity [4]	Activity [5]	Activity [6]	Activity [7]	Activity [8]	ED50 [9] [mg/kg]
CC1CC(=O)N(C(C)C(=O)N2CCN(c3ccc(Cl)c(Cl)c3)CC2)C1=O (stereo unspecified)	inactive	inactive							
CCC(C(=O)N1CCN(c2cccc(Cl)c2)CC1)N1C(=O)CC(C)(C)C1=O (stereo unspecified)	inactive	inactive	inactive	inactive					
CC(C(=O)N1CCN(c2ccc(F)cc2)CC1)N1C(=O)CC(C)(C)C1=O (stereo unspecified)					inactive	inactive			
CC(C(=O)N1CCN(c2cccc(F)c2)CC1)N1C(=O)CC(C)(C)C1=O (stereo unspecified)		inactive							
CC1CC(=O)N(C(C)C(=O)N2CCN(c3ccccc3Cl)CC2)C1=O (stereo unspecified)	inactive	inactive	inactive	inactive		inactive			
CC1CC(=O)N(C(C)C(=O)N2CCN(c3ccccc3C(F)(F)F)CC2)C1=O (stereo unspecified)		inactive			Active	inactive			
CC(C(=O)N1CCN(C)CC1)N1C(=O)CC(C)(C)C1=O (stereo unspecified)					inactive	inactive	inactive	inactive	
CC(C(=O)N1CCN(c2ccccc2F)CC1)N1C(=O)CC(C)(C)C1=O (stereo unspecified)					inactive	inactive	inactive	inactive	
CC(C(=O)N1CCN(c2ccc(Cl)c(Cl)c2)CC1)N1C(=O)CC(C)(C)C1=O (stereo unspecified)		inactive							
CC1CC(=O)N(C(C)C(=O)N2CCN(c3ccccc3)CC2)C1=O (stereo unspecified)	inactive	inactive		inactive					
CC(C(=O)N1CCN(c2ccccc2Cl)CC1)N1C(=O)CC(C)(C)C1=O (stereo unspecified)					inactive	inactive			
COc1cccc(N2CCN(C(=O)C(C)N3C(=O)CC(C)C3=O)CC2)c1 (stereo unspecified)	inactive	inactive		inactive					
CC1CC(=O)N(C(C)C(=O)N2CCN(C)CC2)C1=O (stereo unspecified)					inactive	inactive	inactive	inactive	
CC1CC(=O)N(C(C)C(=O)N2CCN(c3cccc(F)c3)CC2)C1=O (stereo unspecified)	inactive	inactive		inactive		inactive		inactive	
CC(C(=O)N1CCN(c2ccccc2C(F)(F)F)CC1)N1C(=O)CC(C)(C)C1=O (stereo unspecified)	inactive	inactive			Active		Active		> 130
CCC(C(=O)N1CCN(c2cccc(C(F)(F)F)c2)CC1)N1C(=O)CC(C)(C)C1=O (stereo unspecified)		inactive							
CC1CC(=O)N(C(C)C(=O)N2CCN(c3cccc(Cl)c3Cl)CC2)C1=O (stereo unspecified)					inactive	inactive	inactive	inactive	
CC1CC(=O)N(C(C)C(=O)N2CCN(c3ccc(F)cc3)CC2)C1=O (stereo unspecified)						inactive		inactive	
CC(C(=O)N1CCN(c2cccc(Cl)c2Cl)CC1)N1C(=O)CC(C)(C)C1=O (stereo unspecified)					inactive	inactive	inactive	inactive	
CC1CC(=O)N(C(C)C(=O)N2CCN(c3ccc(Cl)cc3)CC2)C1=O (stereo unspecified)						inactive			
CC1CC(=O)N(C(C)C(=O)N2CCN(c3ccccc3F)CC2)C1=O (stereo unspecified)	inactive	inactive		inactive		inactive		inactive	
CC(C(=O)N1CCN(c2ccccc2)CC1)N1C(=O)CC(C)(C)C1=O (stereo unspecified)	inactive	inactive			Active	inactive	Active		> 130
